Measured values from patent publication US20110224210A1, “NOVEL BIS-AMIDES AS ANTI-MALARIAL AGENTS” (priority 2008, published 2011).

What follows are compounds tested on P. falciparum K1 (strain resistant to chloroquine and pyrimethamine), erythrocytic stages (assay: Plasmodium falciparum in vitro assay, [3H] hypoxanthine incorporation). Details: Plasmodium falciparum, K1, P. falciparum strain K1; [3H] hypoxanthine incorporation; read-out: IC50 (nM) on K1.
Format: cell-based
Method in brief: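 Chloroquine/pyrimethamine-resistant K1 erythrocytic cultures (2.5% haematocrit, 0.3% parasitaemia, hypoxanthine-free RPMI with Albumax) exposed to seven doubling dilutions at 37 °C under low O2.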

Compound | IC50 [nM]
COCCN(C)C(=O)[C@H](Cc1ccccc1)N(Cc1ccc(N2CCOCC2)cc1)C(=O)C=Cc1csnn1 [Example 66, (S)-N-{1-[(2-Methoxy-ethyl)-methyl-carbamoyl]-2-phenyl-ethyl}-N-(4-morpholin-4-yl-benzyl)-3-[1,2,3]thiadiazol-4-yl-acrylamide] | 494
COCCN(C)C(=O)[C@H](Cc1ccccc1)N(Cc1ccc(N2CCOCC2)cc1)C(=O)C=Cc1ccc(C(F)(F)F)cn1 [Example 67, (S)-N-{1-[(2-Methoxy-ethyl)-methyl-carbamoyl]-2-phenyl-ethyl}-N-(4-morpholin-4-yl-benzyl)-3-(5-trifluoromethyl-pyridin-2-yl)-acrylamide] | < 8
COCCN(C)C(=O)[C@H](Cc1ccccc1)N(Cc1ccc(N2CCOCC2)cc1)C(=O)C=Cc1ccc(C)cn1 [Example 68, (S)-N-{1-[(2-Methoxy-ethyl)-methyl-carbamoyl]-2-phenyl-ethyl}-3-(5-methyl-pyridin-2-yl)-N-(4-morpholin-4-yl-benzyl)-acrylamide] | 156
COCCN(C)C(=O)[C@H](Cc1ccccc1)N(Cc1ccc(N2CCOCC2)cc1)C(=O)C=Cc1ccc(C)nc1 [Example 69, (S)-N-{1-[(2-Methoxy-ethyl)-methyl-carbamoyl]-2-phenyl-ethyl}-3-(6-methyl-pyridin-3-yl)-N-(4-morpholin-4-yl-benzyl)-acrylamide] | 169
COCCN(C)C(=O)[C@H](Cc1ccccc1)N(Cc1ccc(N2CCOCC2)cc1)C(=O)C=Cc1ccc(Cl)nc1 [Example 70, (S)-3-(6-Chloro-pyridin-3-yl)-N-{1-[(2-methoxy-ethyl)-methyl-carbamoyl]-2-phenyl-ethyl}-N-(4-morpholin-4-yl-benzyl)-acrylamide] | 144
COCCN(C)C(=O)[C@H](Cc1ccccc1)N(Cc1ccc(N2CCOCC2)cc1)C(=O)C=Cc1ccc(OC)nc1 [Example 71, (S)-N-{1-[(2-Methoxy-ethyl)-methyl-carbamoyl]-2-phenyl-ethyl}-3-(6-methoxy-pyridin-3-yl)-N-(4-morpholin-4-yl-benzyl)-acrylamide] | 54
COCCN(C)C(=O)[C@H](Cc1ccccc1)N(Cc1ccc(N2CCOCC2)cc1)C(=O)C=Cc1cnc(OC)nc1 [Example 72, (S)-N-{1-[(2-Methoxy-ethyl)-methyl-carbamoyl]-2-phenyl-ethyl}-3-(2-methoxy-pyrimidin-5-yl)-N-(4-morpholin-4-yl-benzyl)-acrylamide] | 344
COCCN(C)C(=O)[C@H](Cc1ccccc1)N(Cc1ccc(-c2ccccn2)cc1)C(=O)C=Cc1cc(C)nn1C [Example 74, (S)-3-(2,5-Dimethyl-2H-pyrazol-3-yl)-N-{1-[(2-methoxy-ethyl)-methyl-carbamoyl]-2-phenyl-ethyl}-N-(4-pyridin-2-yl-benzyl)-acrylamide] | 40
COCCN(C)C(=O)[C@H](Cc1ccccc1)N(Cc1ccc(-c2ccccn2)cc1)C(=O)C=Cc1c(C)nn(C)c1C [Example 75, (S)-N-{1-[(2-Methoxy-ethyl)-methyl-carbamoyl]-2-phenyl-ethyl}-N-(4-pyridin-2-yl-benzyl)-3-(1,3,5-trimethyl-1H-pyrazol-4-yl)-acrylamide] | 11
COCCN(C)C(=O)[C@H](Cc1ccccc1)N(Cc1ccc(-c2ccccn2)cc1)C(=O)C=Cc1sc(C)nc1C [Example 77, (S)-3-(2,4-Dimethyl-thiazol-5-yl)-N-{1-[(2-methoxy-ethyl)-methyl-carbamoyl]-2-phenyl-ethyl}-N-(4-pyridin-2-yl-benzyl)-acrylamide] | 23
COCCN(C)C(=O)[C@H](Cc1ccccc1)N(Cc1ccc(-c2ccccn2)cc1)C(=O)C=Cc1csc(C)n1 [Example 78, (S)-N-{1-[(2-Methoxy-ethyl)-methyl-carbamoyl]-2-phenyl-ethyl}-3-(2-methyl-thiazol-4-yl)-N-(4-pyridin-2-yl-benzyl)-acrylamide] | 47
COCCN(C)C(=O)[C@H](Cc1ccccc1)N(Cc1ccc(-c2ccccn2)cc1)C(=O)C=Cc1cc(C)on1 [Example 79, (S)-N-{1-[(2-Methoxy-ethyl)-methyl-carbamoyl]-2-phenyl-ethyl}-3-(5-methyl-isoxazol-3-yl)-N-(4-pyridin-2-yl-benzyl)-acrylamide] | 288
COCCN(C)C(=O)[C@H](Cc1ccccc1)N(Cc1ccc(-c2ccccn2)cc1)C(=O)C=Cc1c(C)noc1C [Example 80, (S)-3-(3,5-Dimethyl-isoxazol-4-yl)-N-{1-[(2-methoxy-ethyl)-methyl-carbamoyl]-2-phenyl-ethyl}-N-(4-pyridin-2-yl-benzyl)-acrylamide] | 44
COCCN(C)C(=O)[C@H](Cc1ccccc1)N(Cc1ccc(-c2ccccn2)cc1)C(=O)C=Cc1nc(C)oc1C [Example 81, (S)-3-(2,5-Dimethyl-oxazol-4-yl)-N-{1-[(2-methoxy-ethyl)-methyl-carbamoyl]-2-phenyl-ethyl}-N-(4-pyridin-2-yl-benzyl)-acrylamide] | 102

The next lines start with the values.

IC50 [nM] | Compound
156 | COCCN(C)C(=O)[C@H](Cc1ccccc1)N(Cc1ccc(-c2ccccn2)cc1)C(=O)C=Cc1ccn(C)n1 [Example 73, (S)-N-{1-[(2-Methoxy-ethyl)-methyl-carbamoyl]-2-phenyl-ethyl}-3-(1-methyl-1H-pyrazol-3-yl)-N-(4-pyridin-2-yl-benzyl)-acrylamide]
163 | COCCN(C)C(=O)[C@H](Cc1ccccc1)N(Cc1ccc(-c2ccccn2)cc1)C(=O)C=Cc1cnc(C)n1C [Example 76, (S)-3-(2,3-Dimethyl-3H-imidazol-4-yl)-N-{1-[(2-methoxy-ethyl)-methyl-carbamoyl]-2-phenyl-ethyl}-N-(4-pyridin-2-yl-benzyl)-acrylamide]
99 | COCCN(C)C(=O)[C@H](Cc1ccccc1)N(Cc1ccc(-c2ccccn2)cc1)C(=O)C=Cc1ccc(OC)nn1 [Example 82, (S)-N-{1-[(2-Methoxy-ethyl)-methyl-carbamoyl]-2-phenyl-ethyl}-3-(6-methoxy-pyridazin-3-yl)-N-(4-pyridin-2-yl-benzyl)-acrylamide]
209 | COCCN(C)C(=O)[C@H](Cc1ccccc1)N(Cc1ccc(-c2ccccn2)cc1)C(=O)C=Cc1cnc(C)nc1 [Example 83, (S)-N-{1-[(2-Methoxy-ethyl)-methyl-carbamoyl]-2-phenyl-ethyl}-3-(2-methyl-pyrimidin-5-yl)-N-(4-pyridin-2-yl-benzyl)-acrylamide]
27 | COCCN(C)C(=O)[C@H](Cc1ccccc1)N(Cc1ccc(-c2ccccn2)cc1)C(=O)C=Cc1ccc(C)nc1 [Example 84, (S)-N-{1-[(2-Methoxy-ethyl)-methyl-carbamoyl]-2-phenyl-ethyl}-3-(6-methyl-pyridin-3-yl)-N-(4-pyridin-2-yl-benzyl)-acrylamide]
31 | COCCN(C)C(=O)[C@H](Cc1ccccc1)N(Cc1ccc(-c2ccccn2)cc1)C(=O)C=Cc1ccc(Cl)nc1 [Example 85, (S)-3-(6-Chloro-pyridin-3-yl)-N-{1-[(2-methoxy-ethyl)-methyl-carbamoyl]-2-phenyl-ethyl}-N-(4-pyridin-2-yl-benzyl)-acrylamide]
27 | COCCN(C)C(=O)[C@H](Cc1ccccc1)N(Cc1ccc(-c2ccccn2)cc1)C(=O)C=Cc1ccc(C)cn1 [Example 86, (S)-N-{1-[(2-Methoxy-ethyl)-methyl-carbamoyl]-2-phenyl-ethyl}-3-(5-methyl-pyridin-2-yl)-N-(4-pyridin-2-yl-benzyl)-acrylamide]
